The values below come from patent publication US4485113A (priority 1979, dated 1984).

One may read the LD50 as the dose at which mortality reaches 50%.

Each structure is given as a SMILES string.

The first data set has as its system rat.
Assay: not given
Particulars: in vivo, po.
For the compound `CNC(=O)ON=C(C)SC` [Compound 1], the “A.O. Rat. LD50” value came to 49 mg/kg.

`CNC(=O)ON=C(C)SC(C)C` [Compound 3]: the “A.O. Rat. LD50” value stood at 8 mg/kg.

Tested on in the next data set: not listed separately
Put plainly: in vivo. As to conditions: rat, po.
Compound `CSC(C)=NOC(=O)N(C)SC(C)(C)C#N` [X, 1-Methylthioacetaldehyde O-[N-methyl-N-(2-cyano-2-propanesulfenyl)carbamoyl]oxime] showed an LD50 of 127 mg/kg.

Consider `CN(SC(C)(C)CCl)C(=O)ON=C1SC(C)(C)C(=O)N1C` [XIII, 3,5,5-Trimethyl-2-[[O--[N--methyl-N--(2-chloromethyl-2-propanesulfenyl)carbamoyl]oximino]]-4-thiazolidinone], for which the LD50 is 343 mg/kg.

`CN(SC(C)(C#N)CCl)C(=O)ON=C1SC(C)(C)C(=O)N1C` (centres unmarked) [XIX, 3,5,5-Trimethyl-2-[[O--[N--methyl-N--(1-chloro-2-cyano-2-propanesulfenyl)carbamoyl]oximino]]-4-thiazolidinone] had a median lethal dose (LD50) of 320 mg/kg.

As for `CC(=NOC(=O)N(C)SC(C)(C)C#N)SC(C)C` [XXIII, 1-Isopropylthioacetaldehyde O--[N--methyl-N--(2-cyano-2-propanesulfenyl)carbamoyl]oxime], the LD50 turned out to be 20 mg/kg.

Turning to `CC(=NOC(=O)N(C)SC(C)(C)C#N)SCCC#N` [XXIV, 1-(2-Cyanoethylthio)acetaldehyde O--[N--methyl-N--(2-cyano-2-propanesulfenyl)carbamoyl]oxime], the LD50 came out at 14.1 mg/kg. The LD50 values of the last two compounds are within 1.5-fold of each other.

Regarding `CC(=NOC(=O)N(C)SSC(C)(C)C#N)SC(C)C` [XXIX, 1-Isopropylthioacetaldehyde O--[N-- methyl-N--(2-cyano-2-propanethiosulfenyl)carbamoyl]oxime], the LD50 was found to be 18 mg/kg.

Compound `CN(SC(C)(C)C#N)C(=O)ON=C1CSCCS1` [XXVI, 2-[[O--[N--methyl-N--(2-cyano-2-propanesulfenyl)carbamoyl]oximino]]-1,4-dithiane] showed an LD50 of 40 mg/kg.

The compound `CC(=NOC(=O)N(C)SSC(C)(C)C#N)SCCC#N` [XXVIII, 1-(2-Cyanoethylthio)acetaldehyde O--[N--methyl-N--(2-cyano-2-propanethiosulfenyl)carbamoyl]oxime] registered an LD50 of 28 mg/kg.

`CSC(C)=NOC(=O)N(C)SSC(C)(C)C#N` [XXVII] returned an LD50 of 127 mg/kg.

Take `CN(SSC(C)(C)C#N)C(=O)ON=CC(C)(C)C#N` [XXXII, 2-Cyano-2-methylpropionaldehyde O--[N--methyl-N--(2-cyano-2-propanethiosulfenyl)carbamoyl]oxime]: the median lethal dose (LD50) was found to be 14 mg/kg.

As for `CC1OCSC1=NOC(=O)N(C)SSC(C)(C)C#N` (centres unmarked) [XXXIV, 5-Methyl-4-[[O--[N--methyl-N--(2-cyano-2-propanethiosulfenyl)carbamoyl]oximino]]-1,3-oxathiolane], the LD50 is 14 mg/kg.

Compound `CN(SSC(C)(C)C#N)C(=O)ON=C1CSCCS1` [XXXV, 2-[[O--[N--methyl-N--(2-cyano-2-propanethiosulfenyl)carbamoyl]oximino]]-1,4-dithiane] yielded an LD50 of 32 mg/kg. This LD50 is about 2.3-fold higher than that of the compound before.
